Laboratory results published in ChEMBL document CHEMBL4819009, “Modulators of hERAP2 discovered by high-throughput screening” (Eur J Med Chem, 2021).

How the values were obtained:
[1] = target: T1, Endoplasmic reticulum aminopeptidase 2 (Homo sapiens, UniProt Q6P179); experiment: Inhibition of human ERAP2
[2] = target: Leucyl-cystinyl aminopeptidase (IRAP), Homo sapiens (UniProt Q9UIQ6); experiment: Inhibition of recombinant human IRAP expressed in HEK293 cells at 100 uM using L-AMC as substrate preincubated for 30 mins followed by substrate addition measured every 3 mins for 1 hr by flourescence assay relative to control; details: time 90.0 min
Leucyl-cystinyl aminopeptidase (IRAP), Homo sapiens, sequence (Q9UIQ6 whole entry, looked up): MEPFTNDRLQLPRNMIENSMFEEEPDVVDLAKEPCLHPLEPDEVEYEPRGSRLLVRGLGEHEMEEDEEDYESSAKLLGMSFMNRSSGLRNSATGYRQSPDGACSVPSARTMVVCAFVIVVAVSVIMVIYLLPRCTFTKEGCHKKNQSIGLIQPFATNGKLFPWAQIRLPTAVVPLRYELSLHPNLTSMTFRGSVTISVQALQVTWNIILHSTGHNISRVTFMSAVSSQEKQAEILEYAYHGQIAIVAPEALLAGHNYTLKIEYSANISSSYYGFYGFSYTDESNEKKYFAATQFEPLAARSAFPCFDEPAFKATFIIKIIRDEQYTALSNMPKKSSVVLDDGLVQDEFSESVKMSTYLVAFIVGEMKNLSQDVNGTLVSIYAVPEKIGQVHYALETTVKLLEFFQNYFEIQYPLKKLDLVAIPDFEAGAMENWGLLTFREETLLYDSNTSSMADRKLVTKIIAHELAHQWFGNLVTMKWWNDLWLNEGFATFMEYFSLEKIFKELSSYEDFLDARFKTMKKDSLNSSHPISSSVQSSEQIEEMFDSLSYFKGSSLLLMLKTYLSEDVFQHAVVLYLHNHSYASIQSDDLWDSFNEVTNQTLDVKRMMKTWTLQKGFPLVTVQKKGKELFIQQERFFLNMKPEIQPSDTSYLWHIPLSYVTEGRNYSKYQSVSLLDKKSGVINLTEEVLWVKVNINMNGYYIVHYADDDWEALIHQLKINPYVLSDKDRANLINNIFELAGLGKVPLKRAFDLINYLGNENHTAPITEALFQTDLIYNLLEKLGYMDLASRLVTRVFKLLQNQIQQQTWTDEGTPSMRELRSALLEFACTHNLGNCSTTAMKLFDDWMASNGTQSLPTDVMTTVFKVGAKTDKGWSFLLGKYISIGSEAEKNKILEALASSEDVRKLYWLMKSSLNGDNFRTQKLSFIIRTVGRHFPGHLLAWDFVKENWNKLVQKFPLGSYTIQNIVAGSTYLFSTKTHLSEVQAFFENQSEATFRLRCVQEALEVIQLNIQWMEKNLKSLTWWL

[3] = target: T1, Endoplasmic reticulum aminopeptidase 2; experiment: Inhibition of human ERAP2 assessed as hydrolysis of KSIINFEKL to SIINFEKL measured after 2 hrs by LC-MS analysis
[4] = target: T1, Endoplasmic reticulum aminopeptidase 2; experiment: Activation of recombinant ERAP2 (unknown origin) expressed in baculovirus infected Hi-5 insect cells at 100 uM using R-AMC as substrate preincubated for 30 mins followed by substrate addition and measured every 3 mins for 1 hr by flourescence assay relative to control; details: filed as activator, time 90.0 min
[5] = target: Endoplasmic reticulum aminopeptidase 1 (Homo sapiens) (UniProt Q9NZ08); experiment: Inhibition of recombinant C-terminal 10-His-tagged human ERAP1 at 100 uM using L-AMC as substrate preincubated for 30 mins followed by substrate addition measured every 3 mins for 1 hr by flourescence assay relative to control; details: time 90.0 min
Endoplasmic reticulum aminopeptidase 1 (Homo sapiens), sequence (Q9NZ08 whole entry): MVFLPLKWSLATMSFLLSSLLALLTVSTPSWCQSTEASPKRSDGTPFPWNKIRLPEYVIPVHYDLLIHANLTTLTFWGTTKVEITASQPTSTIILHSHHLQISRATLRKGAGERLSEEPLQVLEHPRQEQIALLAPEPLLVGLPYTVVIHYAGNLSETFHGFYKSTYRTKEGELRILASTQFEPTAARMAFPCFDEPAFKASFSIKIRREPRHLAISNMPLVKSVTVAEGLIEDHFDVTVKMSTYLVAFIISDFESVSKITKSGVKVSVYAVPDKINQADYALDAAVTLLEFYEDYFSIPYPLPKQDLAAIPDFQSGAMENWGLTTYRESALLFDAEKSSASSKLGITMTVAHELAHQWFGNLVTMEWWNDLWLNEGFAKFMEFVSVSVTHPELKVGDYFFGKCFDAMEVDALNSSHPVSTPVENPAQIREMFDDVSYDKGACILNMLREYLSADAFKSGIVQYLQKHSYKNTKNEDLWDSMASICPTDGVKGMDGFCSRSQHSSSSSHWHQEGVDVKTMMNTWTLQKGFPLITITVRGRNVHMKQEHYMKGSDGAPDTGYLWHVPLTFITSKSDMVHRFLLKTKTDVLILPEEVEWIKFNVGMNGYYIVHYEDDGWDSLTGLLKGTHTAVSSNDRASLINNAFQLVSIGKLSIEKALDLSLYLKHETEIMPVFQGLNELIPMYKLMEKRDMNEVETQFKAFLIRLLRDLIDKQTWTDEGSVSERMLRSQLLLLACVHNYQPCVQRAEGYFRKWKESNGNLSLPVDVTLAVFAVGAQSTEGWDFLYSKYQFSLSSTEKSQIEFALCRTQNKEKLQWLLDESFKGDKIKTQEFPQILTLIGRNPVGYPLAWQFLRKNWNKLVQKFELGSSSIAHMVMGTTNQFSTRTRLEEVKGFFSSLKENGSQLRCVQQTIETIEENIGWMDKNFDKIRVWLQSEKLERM

[6] = target: T1, Endoplasmic reticulum aminopeptidase 2; experiment: Inhibition of recombinant ERAP2 (unknown origin) expressed in baculovirus infected insect cells at 2 mM using R-AMC as substrate preincubated for 30 mins followed by substrate addition and measured every 3 mins for 1 hr by flourescence assay relative to control; details: time 90.0 min
[7] = target: T1, Endoplasmic reticulum aminopeptidase 2; experiment: Inhibition of recombinant ERAP2 (unknown origin) expressed in baculovirus infected Hi-5 insect cells using R-AMC as substrate preincubated for 30 mins followed by substrate addition and measured every 3 mins for 1 hr by flourescence assay

T1 sequence (Q6P179 whole entry): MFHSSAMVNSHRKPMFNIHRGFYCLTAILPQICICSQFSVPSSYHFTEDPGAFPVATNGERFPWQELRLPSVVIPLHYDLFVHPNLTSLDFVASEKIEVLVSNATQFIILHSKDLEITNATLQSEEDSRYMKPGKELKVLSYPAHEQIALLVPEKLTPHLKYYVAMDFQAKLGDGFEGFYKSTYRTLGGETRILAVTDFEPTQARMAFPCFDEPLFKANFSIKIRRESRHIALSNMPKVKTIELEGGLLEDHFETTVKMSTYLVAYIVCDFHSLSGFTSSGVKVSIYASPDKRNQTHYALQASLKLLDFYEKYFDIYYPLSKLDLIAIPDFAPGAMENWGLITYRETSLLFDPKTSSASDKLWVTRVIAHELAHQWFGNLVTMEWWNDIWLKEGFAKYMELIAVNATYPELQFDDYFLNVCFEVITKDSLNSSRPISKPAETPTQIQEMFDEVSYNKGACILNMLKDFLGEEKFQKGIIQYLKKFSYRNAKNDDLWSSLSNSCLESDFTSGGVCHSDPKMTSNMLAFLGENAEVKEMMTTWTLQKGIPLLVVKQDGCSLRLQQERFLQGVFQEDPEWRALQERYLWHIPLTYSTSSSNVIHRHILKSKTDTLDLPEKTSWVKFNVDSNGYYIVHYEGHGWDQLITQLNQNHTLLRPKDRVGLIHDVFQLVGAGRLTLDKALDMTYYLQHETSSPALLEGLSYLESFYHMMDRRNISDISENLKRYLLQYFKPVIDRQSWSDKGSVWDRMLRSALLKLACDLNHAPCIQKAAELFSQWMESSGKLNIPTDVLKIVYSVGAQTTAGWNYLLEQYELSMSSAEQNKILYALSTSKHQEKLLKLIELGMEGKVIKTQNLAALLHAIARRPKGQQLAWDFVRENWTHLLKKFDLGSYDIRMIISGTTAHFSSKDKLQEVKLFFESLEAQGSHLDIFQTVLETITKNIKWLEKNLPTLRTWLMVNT

Compound	inhibition [2]	fold change (FC) [4]	inhibition [5]	other results
C#CC[C@H](CP(=O)(O)[C@@H](N)CCc1ccccc1)C(=O)N[C@@H](Cc1ccccc1)C(N)=O	–	–	–	IC50 [1]: 33 µM
CC(C)C[C@H](NC(=O)[C@@H](O)[C@H](N)Cc1ccccc1)C(=O)O	–	–	–	inhibition [6]: 100%
O=C(O)CN(CC(=O)N1CCN(Cc2ccccc2)C[C@@H]1Cc1c[nH]c2ccccc12)c1ccccc1	–	–	< 10%	–
CN(C(=O)c1ccc(N(CCN2CCCC2)S(=O)(=O)c2ccc(F)cc2)cc1)[C@@H](Cc1ccccc1)C(=O)O	49%	–	10%	IC50 [7]: 9.7 µM; IC50 [3]: 98 µM

More lines, main results first:

inhibition [2]	fold change (FC) [4]	inhibition [5]	Compound	other results
50%	1.76	< 20%	CN(C(=O)c1ccc(N(CCc2ccccc2)S(=O)(=O)c2ccccc2)cc1)[C@@H](Cc1ccccc1)C(=O)O	IC50 [3]: 89 µM
–	1.43	–	CC(C)C[C@@H](C(=O)O)N(C)C(=O)c1ccc(N(CCc2ccccc2)S(=O)(=O)c2ccccc2)cc1	–
–	1.46	–	CC(C)C[C@@H](C(=O)O)N(C)C(=O)c1ccc(N(CCc2ccccc2)S(=O)(=O)c2ccc(F)cc2)cc1	–
50%	1.84	< 20%	CN(C(=O)c1ccc(N(CCc2ccccc2)S(=O)(=O)c2ccc(F)cc2)cc1)[C@@H](Cc1ccccc1)C(=O)O	–
